Assay results published in patent publication US11015200B2, “Antisense-induced exon exclusion in myostatin” (Sarepta Therapeutics, Inc., priority 2015, dated 2021).
{TEG} = triethylene glycol spacer

Columns and labels:
[1] = test system: exon 2 of the human myostatin gene (huMSTN); test: Exon 2 skipping by RT-PCR in nucleofected primary human myoblasts; type: cell-based; conditions: primary human myoblasts nucleofected with PMO at 10, 3, 1, 0.3 μM, overnight, concentration inducing 50% exon skipping
Method: (§1) In vitro experiments were performed to investigate the ability of antisense oligonucleotides designed and prepared as described above to decrease the expression of exon 2 containing myostatin pre-mRNA. Both human rhabdomyosarcoma cells (RD cells; ATCC CCL-136) and primary human myoblasts were used in the experiments as noted. RD cells or primary human skeletal myoblasts were nucleofected with PMOs at 10, 3, 1 and 0.3 μM in SG or P3 nucleofector solution, respectively, and incubated overnight at 37° C. with 5% CO2. Total RNA was isolated from the cells and RT-PCR was performed using primers Myostatin EX1 Fwd (5′ […] SEQ ID NO: 48) and Myostatin EX3 Rev (5′ […] SEQ ID NO: 49). Amplified samples were analyzed using the LabChip Caliper to determine percent exon 2 skipping. EC50 values were determined using non-linear regression analysis in GraphPad Prism. EC50 values represent the concentration at which the test PMO induces 50% exon skipping.

[2] = test system: exon 2 of the human myostatin gene (huMSTN); test: Exon 2 skipping by RT-PCR in nucleofected human rhabdomyosarcoma (RD) cells; type: cell-based; conditions: for EC50: RD cells nucleofected with PMO at 10, 3, 1, 0.3 μM, overnight, concentration inducing 50% exon skipping; for exon skipping, in words: third series, FIG. 5, RD cells, based on the calculated EC50 values
Method: as §1

[3] = second series (FIG. 4), * = ambiguous fit on non-linear regression

muhuMSTN-SD2(+09 − 15): PMO, 5′ TEG, 3′ H; targeting sequence TCAGTTATCACTTACCAGCCCATC (all phosphorodiamidate morpholino (PMO), 5' {TEG})
EC50 ([1]; fourth series (FIG. 6)): 771 nM

muhuMSTN-SD2(+18 − 07): PMO, 5′ TEG, 3′ H; targeting sequence CACTTACCAGCCCATCTTCTCCTGG (all phosphorodiamidate morpholino (PMO), 5' {TEG})
EC50 ([1]; first series (FIG. 3)): 3880 nM
EC50 [2, 3]: 1290 nM

muhuMSTN-SD2(+22 − 03): PMO, 5′ TEG, 3′ H; targeting sequence TACCAGCCCATCTTCTCCTGGTCCT (splice-switching; all phosphorodiamidate morpholino (PMO), 5' {TEG})
EC50 [2, 3]: 1410 nM

muhuMSTN-SD2(+04 − 16): PMO, 5′ TEG, 3′ H; targeting sequence TTCAGTTATCACTTACCAGC (all phosphorodiamidate morpholino (PMO), 5' {TEG})
EC50 ([1]; fourth series (FIG. 6)): 3910 nM

muhuMSTN-SD2(+04 − 21): PMO, 5′ TEG, 3′ H; targeting sequence TTATTTTCAGTTATCACTTACCAGC (all phosphorodiamidate morpholino (PMO), 5' {TEG})
EC50 ([1]; first series (FIG. 3)): 1050 nM
EC50 [2, 3]: 0.92 nM

huMSTN-SA2(02 + 23): PMO, 5′ TEG, 3′ H; targeting sequence ATCCACTTGCATTAGAAAATCAGCT (all phosphorodiamidate morpholino (PMO), 5' {TEG})
EC50 ([2]; third series (FIG. 5)): 1020 nM

muhuMSTN-SD2(+24 − 01): PMO, 5′ TEG, 3′ H; targeting sequence CCAGCCCATCTTCTCCTGGTCCTGG (splice-switching; all phosphorodiamidate morpholino (PMO), 5' {TEG})
EC50 [2, 3]: 1410 nM

muhuMSTN-SD2(+05 − 16): PMO, 5′ TEG, 3′ H; targeting sequence TTCAGTTATCACTTACCAGCC (all phosphorodiamidate morpholino (PMO), 5' {TEG})
EC50 ([1]; fourth series (FIG. 6)): 1330 nM

muhuD30-SD2(+30 + 1): sequence known in the prior art (US 2013/0085139), 5′ TEG, 3′ H; CAGCCCATCTTCTCCTGGTCCTGGGAAGGT (all phosphorodiamidate morpholino (PMO), 5' {TEG}) [reference compound]
EC50 ([1]; first series (FIG. 3)): 2700 nM
EC50 [2, 3]: 522 nM

huMSTN-SA2(−01 + 24): PMO, 5′ TEG, 3′ H; targeting sequence CATCCACTTGCATTAGAAAATCAGC (all phosphorodiamidate morpholino (PMO), 5' {TEG})
EC50 ([2]; third series (FIG. 5)): 551 nM
exon skipping, in words [2]: most effective

muhuMSTN-SD2(+06 − 16): PMO, 5′ TEG, 3′ H; targeting sequence TTCAGTTATCACTTACCAGCCC (all phosphorodiamidate morpholino (PMO), 5' {TEG})
EC50 ([1]; fourth series (FIG. 6)): 829 nM

muhuMSTN-SD2(+02 − 20): PMO, 5′ TEG, 3′ H; targeting sequence TATTTTCAGTTATCACTTACCA (all phosphorodiamidate morpholino (PMO), 5' {TEG})
EC50 ([1]; fourth series (FIG. 6)): 4060 nM

muhuMSTN-SD2(+10 − 15): PMO, 5′ TEG, 3′ H; targeting sequence TCAGTTATCACTTACCAGCCCATCT (all phosphorodiamidate morpholino (PMO), 5' {TEG})
EC50 ([1]; first series (FIG. 3)): 1070 nM
EC50 [2, 3]: 0.02 nM
EC50 ([2]; third series (FIG. 5)): 115 nM
exon skipping, in words [2]: most effective

muhuMSTN-SD2(+01 − 24): PMO, 5′ TEG, 3′ H; targeting sequence ATGTTATTTTCAGTTATCACTTACC (all phosphorodiamidate morpholino (PMO), 5' {TEG})
EC50 ([1]; fourth series (FIG. 6)): 642 nM

muhuMSTN-SD2(+09 − 16): PMO, 5′ TEG, 3′ H; targeting sequence TTCAGTTATCACTTACCAGCCCATC (all phosphorodiamidate morpholino (PMO), 5' {TEG})
EC50 ([1]; fourth series (FIG. 6)): 549 nM

huMSTN-SA2(−01 + 25): PMO, 5′ TEG, 3′ H; targeting sequence CCATCCACTTGCATTAGAAAATCAGC (all phosphorodiamidate morpholino (PMO), 5' {TEG})
EC50 ([1]; first series (FIG. 3)): 2160 nM

huMSTN-SA2(−04 + 21): PMO, 5′ TEG, 3′ H; targeting sequence CCACTTGCATTAGAAAATCAGCTAT (all phosphorodiamidate morpholino (PMO), 5' {TEG})
EC50 ([2]; third series (FIG. 5)): 365 nM
exon skipping, in words [2]: most effective

muhuMSTN-SD2(+02 − 21): PMO, 5′ TEG, 3′ H; targeting sequence TTATTTTCAGTTATCACTTACCA (all phosphorodiamidate morpholino (PMO), 5' {TEG})
EC50 ([1]; fourth series (FIG. 6)): 3990 nM

muhuMSTN-SD2(+09 − 11): PMO, 5′ TEG, 3′ H; targeting sequence TTATCACTTACCAGCCCATC (all phosphorodiamidate morpholino (PMO), 5' {TEG})
EC50 ([1]; fourth series (FIG. 6)): > 10000 nM

muhuMSTN-SD2(+09 − 13): PMO, 5′ TEG, 3′ H; targeting sequence AGTTATCACTTACCAGCCCATC (all phosphorodiamidate morpholino (PMO), 5' {TEG})
EC50 ([1]; fourth series (FIG. 6)): 2400 nM

muhuMSTN-SD2(+09 − 14): PMO, 5′ TEG, 3′ H; targeting sequence CAGTTATCACTTACCAGCCCATC (all phosphorodiamidate morpholino (PMO), 5' {TEG})
EC50 ([1]; fourth series (FIG. 6)): 1250 nM

muhuMSTN-SD2(+09 − 12): PMO, 5′ TEG, 3′ H; targeting sequence GTTATCACTTACCAGCCCATC (all phosphorodiamidate morpholino (PMO), 5' {TEG})
EC50 ([1]; fourth series (FIG. 6)): 4350 nM

muhuMSTN-SD2(+19 − 06): PMO, 5′ TEG, 3′ H; targeting sequence ACTTACCAGCCCATCTTCTCCTGGT (splice-switching; all phosphorodiamidate morpholino (PMO), 5' {TEG})
EC50 [2, 3]: 1330 nM

muhuMSTN-SD2(+02 − 19): PMO, 5′ TEG, 3′ H; targeting sequence ATTTTCAGTTATCACTTACCA (all phosphorodiamidate morpholino (PMO), 5' {TEG})
EC50 ([1]; fourth series (FIG. 6)): 3580 nM

muhuMSTN-SD2(+02 − 23): PMO, 5′ TEG, 3′ H; targeting sequence TGTTATTTTCAGTTATCACTTACCA (all phosphorodiamidate morpholino (PMO), 5' {TEG})
EC50 ([1]; fourth series (FIG. 6)): 277 nM

huMSTN-SA2(−05 + 20): PMO, 5′ TEG, 3′ H; targeting sequence CACTTGCATTAGAAAATCAGCTATA (all phosphorodiamidate morpholino (PMO), 5' {TEG})
EC50 ([1]; first series (FIG. 3)): 3860 nM
EC50 ([2]; third series (FIG. 5)): 214 nM
exon skipping, in words [2]: most effective

muhuMSTN-SD2(+08 − 16): PMO, 5′ TEG, 3′ H; targeting sequence TTCAGTTATCACTTACCAGCCCAT (all phosphorodiamidate morpholino (PMO), 5' {TEG})
EC50 ([1]; fourth series (FIG. 6)): 622 nM

muhuMSTN-SD2(+02 − 22): PMO, 5′ TEG, 3′ H; targeting sequence GTTATTTTCAGTTATCACTTACCA (all phosphorodiamidate morpholino (PMO), 5' {TEG})
EC50 ([1]; fourth series (FIG. 6)): 687 nM

muhuMSTN-SD2(+07 − 16): PMO, 5′ TEG, 3′ H; targeting sequence TTCAGTTATCACTTACCAGCCCA (all phosphorodiamidate morpholino (PMO), 5' {TEG})
EC50 ([1]; fourth series (FIG. 6)): 612 nM

muhuMSTN-SD2(+01 − 23): PMO, 5′ TEG, 3′ H; targeting sequence TGTTATTTTCAGTTATCACTTACC (all phosphorodiamidate morpholino (PMO), 5' {TEG})
EC50 ([1]; fourth series (FIG. 6)): 648 nM

muhuMSTN-SD2(+13 − 12): PMO, 5′ TEG, 3′ H; targeting sequence GTTATCACTTACCAGCCCATCTTCT (all phosphorodiamidate morpholino (PMO), 5' {TEG})
EC50 [2, 3]: 970 nM

huMSTN-SA2(−07 + 18): PMO, 5′ TEG, 3′ H; targeting sequence CTTGCATTAGAAAATCAGCTATAAA (all phosphorodiamidate morpholino (PMO), 5' {TEG})
EC50 ([2]; third series (FIG. 5)): 881 nM

muhuMSTN-SD2(+02 − 18): PMO, 5′ TEG, 3′ H; targeting sequence TTTTCAGTTATCACTTACCA (all phosphorodiamidate morpholino (PMO), 5' {TEG})
EC50 ([1]; fourth series (FIG. 6)): 6210 nM

muhuMSTN-SD2(+07 − 18): PMO, 5′ TEG, 3′ H; targeting sequence TTTTCAGTTATCACTTACCAGCCCA (all phosphorodiamidate morpholino (PMO), 5' {TEG})
EC50 ([1]; first series (FIG. 3)): 662 nM
EC50 [2, 3]: 0.06 nM

huMSTN-SA2(−03 + 22): PMO, 5′ TEG, 3′ H; targeting sequence TCCACTTGCATTAGAAAATCAGCTA (all phosphorodiamidate morpholino (PMO), 5' {TEG})
EC50 ([2]; third series (FIG. 5)): 11900 nM
